Test results reported in publication PMC10948969 (Nature cancer, 2023).

Key:
WNT reporter (TOP-GFP) = test: TOP-GFP Wnt reporter in MYC-CTNNB1 organoids; type: cell-based, mouse; conditions: 24 h after treatment
[1] = Single-dose oral pharmacokinetics in BALB/c mice; type: in vivo, mouse
[2] = test system: CTNNB1-mutated HCC (MYC-lucOS; CTNNB1); test: Hydrodynamic tail-vein; type: in vivo, mouse; conditions: 5 d on and 2 d off
[3] = test system: MYC-Tp53 tumor organoid allografts; test: MYC-Tp53 tumor organoid allografts in C57BL/6 mice; type: in vivo, mouse; conditions: 30 mg kg−1 daily oral gavage, treatment from 100 mm3
[4] = test system: MYC-CTNNB1 tumor organoids; test: Drug toxicity; type: cell-based, mouse
HEPG2 cells = test: Drug toxicity; type: cell-based, human; conditions: 3 d
[5] = test system: MYC-CTNNB1 tumor organoid allografts; test: MYC-CTNNB1 tumor organoid allografts in C57BL/6 mice; type: in vivo, mouse; conditions: 30 mg kg−1 daily oral gavage, treatment from 100 mm3
[6] = In vivo dose escalation / tolerability in mice
p38 (MAPK14) = p38 (MAPK14) (Homo sapiens, UniProt Q16539); test: In vitro kinase assay with EZH2 T367 peptide, p38; type: biochemical; conditions: inhibitor 1 μM, EZH2 peptide 1 μM
ERK1 = ERK1 (Homo sapiens, UniProt P27361); test: In vitro kinase assay with EZH2 T367 peptide, ERK; type: biochemical; conditions: inhibitor 1 μM, EZH2 peptide 1 μM
[7] = test system: KIT, PDGFRα/β, VEGFR1/2, RET and FLT3; test: Kinome profiling; type: binding; conditions: in vitro kinome selectivity profile

ERK1, sequence (P27361 whole entry): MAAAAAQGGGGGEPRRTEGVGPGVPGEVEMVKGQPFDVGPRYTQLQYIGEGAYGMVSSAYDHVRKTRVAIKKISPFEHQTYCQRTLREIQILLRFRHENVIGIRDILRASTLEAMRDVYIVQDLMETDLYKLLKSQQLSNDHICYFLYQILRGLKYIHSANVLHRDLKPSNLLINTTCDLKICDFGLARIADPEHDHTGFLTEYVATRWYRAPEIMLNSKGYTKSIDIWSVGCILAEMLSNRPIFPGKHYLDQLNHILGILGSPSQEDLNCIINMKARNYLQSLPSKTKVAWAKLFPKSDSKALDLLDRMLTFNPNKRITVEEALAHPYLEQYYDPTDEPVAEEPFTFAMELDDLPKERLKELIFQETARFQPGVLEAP
p38 (MAPK14), sequence (Q16539 whole entry): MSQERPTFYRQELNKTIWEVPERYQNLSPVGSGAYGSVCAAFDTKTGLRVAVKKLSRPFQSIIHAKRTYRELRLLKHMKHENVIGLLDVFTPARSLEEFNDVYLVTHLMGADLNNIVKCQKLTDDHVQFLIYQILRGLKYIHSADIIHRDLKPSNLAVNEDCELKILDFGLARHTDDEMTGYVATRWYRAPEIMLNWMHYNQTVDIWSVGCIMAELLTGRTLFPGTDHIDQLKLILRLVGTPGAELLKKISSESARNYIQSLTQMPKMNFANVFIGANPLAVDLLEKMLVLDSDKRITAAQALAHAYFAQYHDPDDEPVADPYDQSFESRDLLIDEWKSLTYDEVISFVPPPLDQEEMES

## Cc1cc(C)c(CNC(=O)c2cc(-c3ccc(N4CCN(CCNC(=O)CC56CC7CC(CC(C7)C5)C6)CC4)nc3)cc3c2cnn3C(C)C)c(=O)[nH]1 [MS1943]
WNT reporter (TOP-GFP)
  WNT-driven GFP reporter expression: neither small molecule (MS1943 or GSK343) dampened the expression of the WNT reporter

## CNC(=O)c1cc(Oc2ccc(NC(=O)Nc3ccc(Cl)c(C(F)(F)F)c3)cc2)ccn1 [sorafenib, reference compound]
[1]; female, BALB/c, mouse, plasma, po, 20 mg/kg
  half-life: 8 h
[2]; 30 mg kg−1 oral, started 7 d post-injection
  survival benefit: 7.5 days
[3]
  anti-tumor activity: measurable anti-tumor activity

## CCCc1cc(C)[nH]c(=O)c1CNC(=O)c1cc(-c2ccnc(N3CCN(C)CC3)c2)cc2c1cnn2C(C)C [GSK343]
WNT reporter (TOP-GFP)
  WNT-driven GFP reporter expression: neither small molecule (MS1943 or GSK343) dampened the expression of the WNT reporter

## COc1cc2nccc(Oc3ccc(NC(=O)NC4CC4)c(Cl)c3)c2cc1C(N)=O [lenvatinib]
[3]
  anti-tumor activity: measurable anti-tumor activity

## CNC(=O)c1cc(Oc2ccc(NC(=O)Nc3ccc(C(F)(F)C(F)(F)F)cc3)c(F)c2)ccn1 [WNTinib]
[4]; read-out: IC50 in MYC-CTNNB1 organoids, without cKit knockdown, treated 3 d
  IC50: < 1000 nM
[4]; titration of BRAF inhibitor dabrafenib, 3 d, CI > 1 = antagonized
  combination index (CI) with dabrafenib: > 1
[4]; titration of KIT ligand SCF, 3 d, CI >1 = antagonized
  combination index (CI) with SCF: > 1
[4]; titration of p38α/β inhibitor SB202190, 3 d, CI > 1 = antagonized
  combination index (CI) with SB202190: > 1
HEPG2 cells; HEPG2 transduced with gatekeeper mutants vs parental
  efficacy with drug-resistant p38α (Thr106Met) or BRAF (Thr529Asn): largely unchanged
HEPG2 cells; constitutively active MEK1 (Ser218Asp, Ser222Asp) in HEPG2
  activity under MEK overexpression: effectively eliminated WNTinib activity
HEPG2 cells; constitutively active MKK6 (Ser207Glu, Thr211Glu) vs parental HEPG2
  shift of IC50 by MKK6 overexpression: ~ 30 fold
HEPG2 cells; doxycycline-inducible activated KIT double mutant in HEPG2
  efficacy under activated KIT overexpression: greatly reduced
[1]; 24 h after oral dosing, 20 mg kg−1, BALB/c mice
  plasma concentration: 7 µM
[1]; BALB/c mice, oral, 20 mg kg−1
  half-life: 9.38 h
[1]; oral, 20 mg kg−1
  detectable quantities of drug in blood plasma post-dosing: up to 72 h
[2]; 20 mg kg−1 oral
  survival of remaining animals after the final dosing: > 300 days
[2]; 20 mg kg−1 oral, started 7 d post-injection
  fraction of treatment arm that succumbed to death: 40%
[5]
  tumor regression: induced significant tumor regression
[3]
  anti-tumor activity: inactive
[6]; mice treated for >3 weeks, consistent with on-target KIT inhibition
  phenotype on extended treatment: fur depigmentation
[6]; three mouse strains, dosed daily for 2 weeks, oral dose escalation
  signs of sickness or toxicity: No mice showed signs of sickness, or evident toxicity in the liver, intestine or kidney
p38 (MAPK14)
  inhibition of EZH2 Thr367 peptide phosphorylation by p38: did not inhibit this phosphorylation in vitro
ERK1
  inhibition of EZH2 Thr367 peptide phosphorylation by ERK: did not inhibit this phosphorylation in vitro
WNT reporter (TOP-GFP)
  WNT-driven GFP reporter expression: the only compound to downregulate WNT-driven GFP expression
[7]
  inhibition of proposed key targets of sorafenib and regorafenib: maintained potent inhibition

## CNC(=O)c1cc(Oc2ccc(NC(=O)Nc3ccc(Cl)c(C(F)(F)F)c3)c(F)c2)ccn1 [regorafenib]
[3]
  anti-tumor activity: measurable anti-tumor activity
